# Experimental data published in ChEMBL document CHEMBL1201862, “PubChem BioAssay data set” (2004).
# Calls of active or inactive are those of the source.
# Tests used:
# [1] = Concentration-dependent survival of SW480 colon cancer line, luminescence detection with CellTiter-Glo, half-maximal inhibitory concentration (AID 1117338); format: functional
# [2] = RKO cell viability reduction, dose response, CellTiter-Glo luminescence (AID 1117322); format: functional
# [3] = cytotoxicity toward Colo320 cells – cell-based, CellTiter-Glo luminescence, IC50, dose response (AID 1117334); format: functional; settings: COLO 320
# [4] = CellTiter-Glo luminescent dose response of DLD-1 viability loss (AID 1117352); format: functional
# [5] = HCT116 cell viability decrease, GSK3B pretreatment – CellTiter-Glo, IC50, dose response (AID 1117339); format: functional; settings: HCT-116
# [6] = SNU-C1 cell viability reduction, dose response, CellTiter-Glo luminescence (AID 1117323); format: functional, cell-based
# [7] = cytotoxicity toward HT-29 cells – cell-based, CellTiter-Glo luminescence, IC50, dose response (AID 1117330); format: functional
# [8] = cytotoxicity toward HCT116 cells – cell-based, CellTiter-Glo luminescence, IC50, dose response (AID 1117332); format: functional; settings: HCT-116
# [9] = biological target: T1, Heat shock factor protein 1 (Mus musculus, UniProt P38532); experiment: HSF1 potentiators in luciferase reporter cells, confirmation, cell-based, NIH3T3, luminescence, dose retest (AID 435004); format: functional;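 further: stress induced by proteasome inhibitor MG132 added 30 min after compound; luciferase reporter driven by HSF1 response element in NIH3T3 cells; actives raise luminescence as potentiators of the MG132 stress response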
# T1 sequence (P38532 whole entry): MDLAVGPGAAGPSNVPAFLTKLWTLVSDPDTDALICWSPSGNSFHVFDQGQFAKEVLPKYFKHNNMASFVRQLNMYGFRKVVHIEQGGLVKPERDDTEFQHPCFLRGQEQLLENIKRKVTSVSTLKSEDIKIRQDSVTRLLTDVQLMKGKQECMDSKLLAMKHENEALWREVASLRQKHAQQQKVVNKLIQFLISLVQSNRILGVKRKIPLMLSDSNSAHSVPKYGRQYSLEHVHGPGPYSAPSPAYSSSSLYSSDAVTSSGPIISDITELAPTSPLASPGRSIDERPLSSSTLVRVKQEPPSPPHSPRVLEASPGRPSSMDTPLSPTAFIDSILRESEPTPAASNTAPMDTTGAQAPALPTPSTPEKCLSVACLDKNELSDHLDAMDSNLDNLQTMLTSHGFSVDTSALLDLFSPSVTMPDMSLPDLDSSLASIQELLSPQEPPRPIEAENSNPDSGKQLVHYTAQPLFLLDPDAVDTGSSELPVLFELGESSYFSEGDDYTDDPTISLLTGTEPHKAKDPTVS
# [10] = biological target: Large T antigen (Simian virus 40, UniProt P03070); format: functional, Betapolyomavirus macacae;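 further: Confirmatory-stage PubChem screen for compounds that inhibit SV40 T antigen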
# [11] = biological target: Beta Lactamase (Pseudomonas aeruginosa, UniProt Q932Y6); experiment: beta-lactamase reporter inhibitor potency, dose response, artefact control for TLR9-MyD88 binding inhibitor project, BLA reporter cells, FRET fluorescence (AID 588341); format: cell-based;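 further: cell based assay in CHO-K1 cells stably expressing beta-lactamase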
# [12] = inhibitors of control Renilla luciferase reporter, dose response, counter-screen for Shn3 3'UTR targeting project, Clone20-Shn3RL cells, dual-Glo, cherry-pick, set 2 (AID 720724); format: functional, cell-based; settings: Dual-Go Shn3RL
# [13] = control 3'UTR Renilla luciferase suppression, dose response, counter-screen for Shn3 inhibitor project, cell-based, Clone20-Shn3RL, cherry-picked (AID 624133); format: functional
# [14] = HepG2 cell cytotoxicity, dose response, cytotoxicity control for Shn3 inhibitor project, CellTiter-Glo, cherry-picked (AID 624134); format: functional, cell-based
# [15] = cytotoxicity toward NIH3T3 fibroblasts, dose response, counter-screen, cell-based, ATP luminescence, mouse fibroblasts (AID 2010); format: functional;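 further: cells exposed to compound for about 90 hours before reading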
# [16] = biological target: Bifunctional protein GlmU (Mycobacterium tuberculosis, UniProt P9WMN3); experiment: Inhibitors of Mycobacterial Glucosamine-1-phosphate acetyl transferase (GlmU). Secondary screen.; design: species or system Mycobacterium tuberculosis H37Rv
# [17] = reduction of Shn3 3'UTR firefly luciferase signal, dose response, Schnurri-3 inhibitor project, cell-based, Clone20 osteoblasts, cherry-pick, set 2 (AID 720490); format: functional;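 further: actives lower the luminescence signal as inhibitors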
# [18] = inhibitors of intracellular T. cruzi replication, confirmation, NIH3T3 host cells, beta-gal luminescence (AID 2044); format: functional, cell-based;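 further: intracellular parasites grown in NIH/3T3 mouse fibroblasts as host cells; luminescent beta-galactosidase reporter signal from transgenic T. cruzi replicating inside host cells; inhibitors lower the luminescence signal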
# [19] = tested on: CHO; experiment: cytotoxicity in TLR9-MyD88 CHO cells, dose response, cytotoxicity control for TLR9-MyD88 binding inhibitor project, cell-based, luminescence (AID 588339); format: functional, hamster; settings: Cricetulus griseus;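 further: CHO cells stably coexpressing TLR9 and MyD88 fusions from primary screen; compound exposure lasted 48 hours before viability readout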
# [20] = reduction of endogenous Shn3 mRNA, dose response, qPCR, Clone20 cells, cherry-pick (AID 743415); format: functional, cell-based
# [21] = Shn3 3'UTR reporter inhibitors, dose response, cell-based, Clone20 osteoblasts, firefly luciferase, cherry-picked (AID 624132); format: functional;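 further: firefly luciferase luminescence from reporter carrying the Shn3 3'UTR in osteoblasts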
# [22] = Artemis endonuclease inhibitor potency, dose response, biochemical, fluorescence intensity (AID 720701); format: functional;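 further: Artemis endonuclease enzyme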
# [23] = biological target: T2, Endoribonuclease toxin MazF (Escherichia coli K-12, UniProt P0AE70); experiment: MazF toxin RNase activators, dose response, biochemical, fluorescence, single-stranded RNA substrate, uHTS hits (AID 588481); format: functional
# T2 sequence (P0AE70 whole entry): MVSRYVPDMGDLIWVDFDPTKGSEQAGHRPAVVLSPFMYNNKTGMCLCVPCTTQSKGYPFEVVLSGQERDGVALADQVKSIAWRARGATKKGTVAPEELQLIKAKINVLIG
# [24] = biological target: T2, Endoribonuclease toxin MazF; experiment: fluorescent RNA oligo signal without MazF, dose response, counter-screen for MazEF activator project, biochemical, fluorescence, single-stranded RNase substrate (AID 588502); format: functional
# [25] = biological target: T3, Fibrinogen beta chain (Homo sapiens, UniProt P02675); experiment: Fluorescence polarization-based biochemical high throughput dose response assay to identify inhibitors that disrupt the binding of a cyclic peptide (Tn7) to the fibrin proteolytic product D-Dimer and fragment E complex [DD(E )].
# [26] = biological target: T3, Fibrinogen beta chain; experiment: Fluorescence polarization-based biochemical high throughput dose response assay to identify inhibitors that disrupt the binding of a cyclic peptide (Tn6) to the fibrin proteolytic product D-Dimer and fragment E complex [DD(E )].
# [27] = biological target: RNA-editing ligase 1, mitochondrial (Trypanosoma brucei brucei, UniProt P86926); experiment: TbREL1 ligase inhibitors, dose response, biochemical, fluorescence, Trypanosoma brucei (AID 1117295); format: functional
# [28] = biological target: E3 ubiquitin-protein ligase UHRF1 (Homo sapiens, UniProt Q96T88); experiment: Counterscreen for inhibitors of 5-meCpG-binding domain protein 2 (MBD2): TRFRET-based biochemical high throughput dose response assay to identify inhibitors of binding of ubiquitin-like with PHD and ring finger domains 1 (UHRF1) to methylated oligonucleotide.
# [29] = inhibitors of PGC1a acetylation in cells, dose response, cell-based, cherry-picked samples (AID 720514); format: functional;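 further: potency may reflect raised or lowered acetylation signal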
# [30] = U-251 glioblastoma cell viability loss, dose response, HRAS target identification, Alamar Blue fluorescence, 8/24/48 h, dry powder (AID 720605); format: functional, cell-based
# [31] = SR lymphoma cell viability over time, late-stage follow-up, mechanism study for HRAS target identification, CellTiter-Glo ATP luminescence, 8-48 h, dry powder (AID 720608); format: functional, cell-based
# [32] = CCRF-CEM leukemia cell viability loss, dose response, HRAS target identification, CellTiter-Glo ATP luminescence, 8/24/48 h, dry powder (AID 720607); format: functional, cell-based
# [33] = SNB-75 astrocytoma cell viability loss, late-stage follow-up, mechanism study for HRAS target identification, CellTiter-Glo ATP luminescence, several timepoints, dry powder (AID 720624); format: functional, cell-based
# [34] = LOX IMVI melanoma cell viability loss, dose response, HRAS target identification, CellTiter-Glo ATP luminescence, 8/24/48 h, dry powder (AID 720602); format: functional, cell-based
# [35] = HT-29 colorectal cell cytotoxicity over time, dose response, HRas target identification project, CellTiter-Glo, multiple timepoints, dry powder (AID 720598); format: functional, cell-based
# [36] = C2C12 myoblast ATP-based viability loss, dose response, cytotoxicity control for HRAS target identification, cell-based, CellTiter-Glo ATP luminescence, 8/24/48 h, dry powder (AID 720603); format: functional
# [37] = inhibitors of non-replicating M. tuberculosis, dose response, luciferase, dry powder (AID 651619); format: functional; settings: Mycobacterium tuberculosis
# [38] = inhibitors of non-replicating M. tuberculosis, dose response, luciferase, dry powder (AID 651620); format: functional; settings: Mycobacterium tuberculosis
# [39] = biological target: Potassium channel subfamily K member 9 (Homo sapiens, UniProt Q9NPC2); experiment: KCNK9 (TASK3) current inhibition by patch clamp, SAR follow-up, selectivity assay for TASK1 (KCNK3) inhibitor project, cell-based, automated electrophysiology (AID 652210); format: functional
# [40] = biological target: Potassium channel subfamily K member 3 (Homo sapiens, UniProt O14649); experiment: TASK1 (KCNK3) potassium channel inhibitors, SAR follow-up, CHO cells, FluxOR thallium flux (AID 652212); format: functional
# [41] = biological target: Metabotropic glutamate receptor 7 (Homo sapiens, UniProt Q14831); experiment: mGlu7 positive allosteric modulators, dose response, cell-based, calcium mobilization, Galpha15 (AID 743384); format: functional
# [42] = HEK293 cell cytotoxicity, dose response, cytotoxicity control, luminescence, dry powder, set 12 (AID 743354); format: functional, cell-based
# [43] = biological target: T4, Cytochrome P450 1A2 (Homo sapiens, UniProt P05177);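 further: PubChem cytochrome P450 panel assay, CYP1A2 panel member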
# T4 sequence (P05177 whole entry): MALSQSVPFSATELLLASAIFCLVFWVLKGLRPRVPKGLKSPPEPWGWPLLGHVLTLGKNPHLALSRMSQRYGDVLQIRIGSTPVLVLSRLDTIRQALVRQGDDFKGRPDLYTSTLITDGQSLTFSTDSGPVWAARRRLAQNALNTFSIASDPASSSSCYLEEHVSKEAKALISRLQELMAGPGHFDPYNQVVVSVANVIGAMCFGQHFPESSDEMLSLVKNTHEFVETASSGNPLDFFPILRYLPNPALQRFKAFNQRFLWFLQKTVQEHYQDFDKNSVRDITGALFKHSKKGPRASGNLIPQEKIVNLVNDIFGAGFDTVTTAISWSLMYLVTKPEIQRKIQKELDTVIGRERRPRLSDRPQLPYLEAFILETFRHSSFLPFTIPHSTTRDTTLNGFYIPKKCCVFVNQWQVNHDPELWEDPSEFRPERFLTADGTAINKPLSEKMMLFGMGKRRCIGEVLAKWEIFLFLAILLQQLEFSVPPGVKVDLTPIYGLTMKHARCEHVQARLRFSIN
# [44] = Dose-response inhibition of insulin secretion in a rat insulinoma line at 5 mM glucose (AID 1117331); format: functional, cell-based; settings: INS-1E
# [45] = biological target: Cytochrome P450 3A4 (Homo sapiens, UniProt P08684);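 further: CYP3A4 tested as one member of a cytochrome P450 panel screen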
# T3 sequence (P02675 whole entry, the tested form may be a part): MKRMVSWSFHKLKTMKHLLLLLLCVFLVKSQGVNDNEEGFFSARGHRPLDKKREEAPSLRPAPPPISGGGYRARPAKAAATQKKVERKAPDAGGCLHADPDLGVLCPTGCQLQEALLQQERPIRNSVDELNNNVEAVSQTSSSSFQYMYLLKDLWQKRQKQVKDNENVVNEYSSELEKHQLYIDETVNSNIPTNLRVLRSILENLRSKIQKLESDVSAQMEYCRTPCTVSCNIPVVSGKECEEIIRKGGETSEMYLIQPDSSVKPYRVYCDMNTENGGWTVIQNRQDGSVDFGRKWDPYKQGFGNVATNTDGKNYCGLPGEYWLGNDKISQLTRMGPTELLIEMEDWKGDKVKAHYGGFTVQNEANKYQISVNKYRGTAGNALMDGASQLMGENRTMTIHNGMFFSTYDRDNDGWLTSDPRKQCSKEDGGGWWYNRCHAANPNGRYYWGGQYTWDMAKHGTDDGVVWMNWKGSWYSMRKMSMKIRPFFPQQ
# Chain of Beta Lactamase (Q932Y6 whole entry): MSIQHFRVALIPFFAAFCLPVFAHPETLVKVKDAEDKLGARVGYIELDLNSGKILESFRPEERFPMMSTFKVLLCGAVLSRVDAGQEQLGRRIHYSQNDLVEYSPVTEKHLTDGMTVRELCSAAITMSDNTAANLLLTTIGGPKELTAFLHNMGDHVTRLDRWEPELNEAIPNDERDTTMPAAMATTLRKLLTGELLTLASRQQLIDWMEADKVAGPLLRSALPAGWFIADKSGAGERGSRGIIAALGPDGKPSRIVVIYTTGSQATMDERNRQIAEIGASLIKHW
# Chain of Potassium channel subfamily K member 9 (Q9NPC2 whole entry): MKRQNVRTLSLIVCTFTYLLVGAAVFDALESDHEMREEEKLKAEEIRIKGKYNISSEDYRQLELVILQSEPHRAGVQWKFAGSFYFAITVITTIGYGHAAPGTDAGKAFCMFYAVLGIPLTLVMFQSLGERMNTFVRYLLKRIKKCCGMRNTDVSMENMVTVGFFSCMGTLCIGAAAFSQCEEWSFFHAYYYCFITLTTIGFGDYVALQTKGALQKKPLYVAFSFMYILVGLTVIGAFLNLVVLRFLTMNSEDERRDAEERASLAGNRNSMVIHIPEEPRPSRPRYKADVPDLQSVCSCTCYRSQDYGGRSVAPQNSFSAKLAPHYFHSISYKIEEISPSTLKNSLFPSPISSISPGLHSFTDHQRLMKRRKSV
# Chain of Metabotropic glutamate receptor 7 (Q14831 whole entry): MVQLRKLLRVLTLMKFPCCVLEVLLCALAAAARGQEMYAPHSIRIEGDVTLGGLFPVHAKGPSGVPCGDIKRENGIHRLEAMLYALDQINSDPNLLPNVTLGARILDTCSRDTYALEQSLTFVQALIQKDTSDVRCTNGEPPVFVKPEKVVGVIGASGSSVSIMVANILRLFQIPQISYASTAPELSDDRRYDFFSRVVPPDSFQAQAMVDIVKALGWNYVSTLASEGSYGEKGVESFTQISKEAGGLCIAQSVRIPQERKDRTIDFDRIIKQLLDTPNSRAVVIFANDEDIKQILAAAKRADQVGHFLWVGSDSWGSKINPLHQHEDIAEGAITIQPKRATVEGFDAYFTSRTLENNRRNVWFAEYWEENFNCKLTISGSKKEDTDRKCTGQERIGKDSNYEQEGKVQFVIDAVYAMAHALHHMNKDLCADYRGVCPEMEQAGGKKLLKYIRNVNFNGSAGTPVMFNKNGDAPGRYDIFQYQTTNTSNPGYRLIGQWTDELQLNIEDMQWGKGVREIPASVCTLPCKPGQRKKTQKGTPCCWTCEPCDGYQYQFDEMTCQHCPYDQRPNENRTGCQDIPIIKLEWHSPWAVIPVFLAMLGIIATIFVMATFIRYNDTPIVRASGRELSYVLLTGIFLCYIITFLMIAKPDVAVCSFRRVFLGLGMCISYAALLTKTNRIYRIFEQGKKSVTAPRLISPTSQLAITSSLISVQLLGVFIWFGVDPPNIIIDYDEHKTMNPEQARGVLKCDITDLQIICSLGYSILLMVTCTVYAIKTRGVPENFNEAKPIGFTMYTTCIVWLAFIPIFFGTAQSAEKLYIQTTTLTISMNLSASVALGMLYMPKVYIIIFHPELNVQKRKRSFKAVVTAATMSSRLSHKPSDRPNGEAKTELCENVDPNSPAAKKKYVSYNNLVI
# Chain of E3 ubiquitin-protein ligase UHRF1 (Q96T88 whole entry, the tested form may be a part): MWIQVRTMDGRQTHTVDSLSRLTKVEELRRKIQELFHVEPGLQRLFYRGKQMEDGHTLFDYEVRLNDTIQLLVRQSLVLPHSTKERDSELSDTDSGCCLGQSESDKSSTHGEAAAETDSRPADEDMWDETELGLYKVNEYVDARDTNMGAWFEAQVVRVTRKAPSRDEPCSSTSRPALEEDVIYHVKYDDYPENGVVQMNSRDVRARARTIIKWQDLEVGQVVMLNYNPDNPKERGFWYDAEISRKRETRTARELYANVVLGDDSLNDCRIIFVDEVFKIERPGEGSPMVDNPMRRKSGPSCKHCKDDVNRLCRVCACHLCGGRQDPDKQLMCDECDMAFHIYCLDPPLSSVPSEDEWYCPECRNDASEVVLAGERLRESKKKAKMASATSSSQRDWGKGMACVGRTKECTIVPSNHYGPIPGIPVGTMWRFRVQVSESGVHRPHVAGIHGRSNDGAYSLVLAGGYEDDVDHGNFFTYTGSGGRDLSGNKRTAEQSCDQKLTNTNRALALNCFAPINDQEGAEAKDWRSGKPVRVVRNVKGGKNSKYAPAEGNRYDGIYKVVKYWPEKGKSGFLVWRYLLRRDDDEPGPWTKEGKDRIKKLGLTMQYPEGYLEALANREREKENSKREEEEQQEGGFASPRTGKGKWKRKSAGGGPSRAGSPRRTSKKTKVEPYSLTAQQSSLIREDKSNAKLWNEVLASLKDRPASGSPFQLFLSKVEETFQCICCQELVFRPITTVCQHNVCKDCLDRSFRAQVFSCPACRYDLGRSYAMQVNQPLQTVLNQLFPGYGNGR
# Chain of RNA-editing ligase 1, mitochondrial (P86926 whole entry, the tested form may be a part): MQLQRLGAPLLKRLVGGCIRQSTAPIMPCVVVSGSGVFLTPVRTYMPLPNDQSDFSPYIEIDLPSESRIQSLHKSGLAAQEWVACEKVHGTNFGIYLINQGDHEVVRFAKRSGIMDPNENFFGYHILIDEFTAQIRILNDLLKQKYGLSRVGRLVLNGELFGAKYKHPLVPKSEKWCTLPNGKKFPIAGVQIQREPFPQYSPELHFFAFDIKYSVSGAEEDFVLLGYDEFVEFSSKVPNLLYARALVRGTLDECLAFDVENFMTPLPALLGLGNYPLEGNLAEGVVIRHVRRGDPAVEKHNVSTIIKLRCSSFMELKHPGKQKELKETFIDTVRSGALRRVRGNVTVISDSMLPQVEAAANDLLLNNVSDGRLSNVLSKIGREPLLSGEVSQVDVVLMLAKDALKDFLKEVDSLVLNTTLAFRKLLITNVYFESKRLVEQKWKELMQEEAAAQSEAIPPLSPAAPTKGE
# Chain of Large T antigen (P03070 whole entry): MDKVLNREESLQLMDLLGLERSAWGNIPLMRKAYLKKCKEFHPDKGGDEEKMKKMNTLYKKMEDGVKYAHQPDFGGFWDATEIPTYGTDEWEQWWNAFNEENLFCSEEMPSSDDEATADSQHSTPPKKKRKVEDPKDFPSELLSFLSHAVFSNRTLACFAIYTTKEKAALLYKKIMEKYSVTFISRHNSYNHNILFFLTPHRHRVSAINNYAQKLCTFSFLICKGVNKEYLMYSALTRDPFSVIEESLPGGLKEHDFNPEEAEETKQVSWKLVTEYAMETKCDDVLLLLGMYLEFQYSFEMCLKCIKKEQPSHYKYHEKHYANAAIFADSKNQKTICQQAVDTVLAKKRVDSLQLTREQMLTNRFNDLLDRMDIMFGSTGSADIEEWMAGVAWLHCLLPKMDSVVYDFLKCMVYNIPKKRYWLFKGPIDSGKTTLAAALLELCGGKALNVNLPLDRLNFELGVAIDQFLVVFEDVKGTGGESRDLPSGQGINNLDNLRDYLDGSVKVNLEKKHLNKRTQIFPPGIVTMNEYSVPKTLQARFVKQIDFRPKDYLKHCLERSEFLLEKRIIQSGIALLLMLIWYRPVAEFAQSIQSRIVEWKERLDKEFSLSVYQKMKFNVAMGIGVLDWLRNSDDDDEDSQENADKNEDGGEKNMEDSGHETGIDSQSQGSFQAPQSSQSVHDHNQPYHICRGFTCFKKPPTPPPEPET
# Chain of Bifunctional protein GlmU (P9WMN3 whole entry): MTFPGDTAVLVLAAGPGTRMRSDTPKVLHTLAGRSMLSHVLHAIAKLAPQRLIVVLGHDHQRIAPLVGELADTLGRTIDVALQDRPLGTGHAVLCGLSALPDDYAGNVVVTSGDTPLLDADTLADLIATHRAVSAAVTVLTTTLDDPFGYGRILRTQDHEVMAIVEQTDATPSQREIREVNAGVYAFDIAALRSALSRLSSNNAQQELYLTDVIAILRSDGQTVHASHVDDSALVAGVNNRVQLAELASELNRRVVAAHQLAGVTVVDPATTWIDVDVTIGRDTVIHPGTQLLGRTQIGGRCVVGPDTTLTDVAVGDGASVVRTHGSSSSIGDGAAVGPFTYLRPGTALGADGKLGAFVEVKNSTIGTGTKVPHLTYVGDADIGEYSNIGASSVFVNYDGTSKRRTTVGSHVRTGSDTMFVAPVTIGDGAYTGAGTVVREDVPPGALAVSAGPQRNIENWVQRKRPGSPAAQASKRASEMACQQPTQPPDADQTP
# Chain of Potassium channel subfamily K member 3 (O14649 whole entry): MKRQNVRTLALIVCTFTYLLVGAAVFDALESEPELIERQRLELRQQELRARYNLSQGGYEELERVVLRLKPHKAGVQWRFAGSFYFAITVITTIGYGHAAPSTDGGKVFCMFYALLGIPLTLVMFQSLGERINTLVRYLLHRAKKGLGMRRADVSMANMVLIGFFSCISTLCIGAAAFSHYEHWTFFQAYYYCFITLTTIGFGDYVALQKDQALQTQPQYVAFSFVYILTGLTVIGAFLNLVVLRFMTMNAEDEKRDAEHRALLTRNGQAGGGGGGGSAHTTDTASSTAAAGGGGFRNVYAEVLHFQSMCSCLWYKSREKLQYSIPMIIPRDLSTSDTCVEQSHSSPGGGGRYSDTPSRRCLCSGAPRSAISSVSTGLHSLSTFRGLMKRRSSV
structure (smiles),measurement,setting,value
NC(=O)n1c(O)c(C(=O)c2cccs2)c2cc(Cl)ccc21,IC50,[1],1.02 µM (active)
same,IC50,[2],4.7 µM (active)
same,IC50,[3],1.64 µM (active)
same,IC50,[4],6.95 µM (inactive)
same,IC50,[5],3.79 µM (active)
same,IC50,[6],0.537 µM (active)
same,IC50,[7],5.6 µM (inactive)
same,IC50,[8],2.31 µM (active)
O=C(c1nnsc1[S+]([O-])c1ccc(Cl)cc1)N1CCOCC1 (stereo not given),EC50,[9],9.23 µM (active)
same,IC50,[10],31.6 µM (active)
same,IC50,[11],30.8 µM (inactive)
same,AC50,[12],3.79 µM (active)
same,AC50,[13],7.35 µM (active)
same,AC50,[14],27.3 µM (active)
same,EC50,[15],2.13 µM (active)
same,IC50,[16],181 µM (active)
same,AC50,[17],2.43 µM (active)
same,EC50,[18],1.85 µM (active)
same,IC50,[19],2.21 µM (active)
same,AC50,[20],13.4 µM (active)
same,AC50,[21],0.93 µM (active)
N#Cc1nc(-c2ccc(OCc3ccc(Cl)cc3)cc2)oc1NCCCn1ccnc1,IC50,[22],4.52 µM (active)
Cc1ccc2c(c1)[C@H]1[C@H](CO2)[C@H](c2ccccc2)[C@]2(C)C(=O)N(Cc3ccc(F)cc3)CC(=O)N12,EC50,[23],3.83 µM (active)
same,EC50,[24],63.9 µM (inactive)
same,IC50,[25],> 83.3 µM (inactive)
same,IC50,[26],> 83.3 µM (inactive)
C[C@@H](NCCCn1cnc2c(OCc3ccccc3)ncnc21)c1cccc2ccccc12,IC50,[27],> 96.6 µM (inactive)
CN(C)C(=O)c1cccc(-c2cnc3c(NC=O)cc(-c4ccccc4N(C)C)cn23)c1,IC50,[28],> 43.8 µM (inactive)
COC(=O)[C@@]1(Cc2ccccc2CN=[N+]=[N-])N=C(c2ccc(OCCCO)cc2)O[C@H]1c1ccccc1,AC50,[29],17.4 µM (active)
COC(=O)c1ccc([C@@H]2c3[nH]c4ccccc4c3C[C@@H](C(=O)OC)N2C(=O)CCl)cc1,AC50,[30],0.0342 µM (active)
same,AC50,[31],0.0492 µM (active)
same,AC50,[32],0.105 µM (active)
same,AC50,[33],0.374 µM (active)
same,AC50,[34],0.0709 µM (active)
same,AC50,[35],0.235 µM (active)
same,AC50,[36],0.233 µM (active)
CCSc1nnc(-c2ccccc2)o1,IC90,[37],31 µM (active)
same,IC90,[38],31 µM (active)
COc1ccccc1C(=O)Nc1cc(NC(=O)c2ccccc2C(C)C)ccc1F,IC50,[39],0.71 µM (active)
same,IC50,[40],0.109 µM (active)
CC(=O)Nc1ccc(SCC(=O)c2cc(C)n(CC3CCCO3)c2C)cc1 (stereo not given),EC50,[41],4.8 µM (active)
CC(=O)c1ccc(N2CCN(C(=O)c3ccccc3F)CC2)cc1,AC50,[42],> 52 µM (inactive)
O=C(CCCN1CCC(O)(c2ccc(Br)cc2)CC1)c1ccc(F)cc1 [BROMPERIDOL],AC50,[43],5.01 µM (inconclusive)
same,IC50,[44],> 33.3 µM (inactive)
same,AC50,[45],inconclusive
